In patent US9340600B2 (Indiana University Research and Technology Corporation, priority 2012, dated 2016):
*1 amine or outer side, *2 acyl side, *3 side chain or, on linkers, in order; H or OH if unused. Where a SMILES comes first, the peptide text is derived from it. Side-chain parts run from the residue outwards. [ ]: non-standard residue; d: D form. The star is where a group is joined. γGlu = O=C(O)[C@H](CCC(=O)[*:2])N[*:1]; Met(O2) = CS(=O)(=O)CC[C@H](N)C(=O)O; Palmitoyl = CCCCCCCCCCCCCCCC(=O)*; Met(O) = CS(=O)CC[C@H](N)C(=O)O; Nle = CCCC[C@H](N)C(=O)O; Aib = CC(C)(N)C(=O)O

Key:
Assay type in all cases: cell-based
GLP-1 receptor = biological target: T1, GLP-1 receptor (Homo sapiens, UniProt P43220); assay: cAMP induction, firefly luciferase-based reporter assay in HEK293 cells co-transfected with GLP-1 receptor; conditions: EC50 at GLP-1 Receptor
T1 construct: expressed in transfected cells; host or cells: HEK293
Source text: (§1) This example describes an exemplary method of testing the biological activity of the peptides of the present disclosures, which method involves assaying cAMP synthesis.

GIP receptor = biological target: T2, GIP receptor (Homo sapiens, UniProt P48546); assay: cAMP induction, firefly luciferase-based reporter assay in HEK293 cells co-transfected with GIP receptor; conditions: EC50 at GIP Receptor
T2 construct: expressed in transfected cells; host or cells: HEK293
T2 sequence (P48546 22-466): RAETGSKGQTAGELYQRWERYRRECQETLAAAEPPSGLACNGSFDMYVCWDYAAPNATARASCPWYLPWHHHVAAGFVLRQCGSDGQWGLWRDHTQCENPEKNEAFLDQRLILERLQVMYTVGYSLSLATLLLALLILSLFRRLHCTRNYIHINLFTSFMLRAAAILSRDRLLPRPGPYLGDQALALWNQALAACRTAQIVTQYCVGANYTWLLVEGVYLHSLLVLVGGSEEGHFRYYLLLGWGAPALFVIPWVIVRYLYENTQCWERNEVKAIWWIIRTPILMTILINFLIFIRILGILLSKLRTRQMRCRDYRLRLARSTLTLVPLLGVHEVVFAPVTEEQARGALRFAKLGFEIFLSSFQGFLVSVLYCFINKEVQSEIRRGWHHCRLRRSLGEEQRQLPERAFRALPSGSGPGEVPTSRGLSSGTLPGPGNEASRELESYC
Source text: as §1

glucagon receptor = biological target: T3, glucagon receptor (Homo sapiens, UniProt P47871); assay: cAMP induction, firefly luciferase-based reporter assay in HEK293 cells co-transfected with glucagon receptor; conditions: EC50 at Glucagon Receptor
T3 construct: expressed in transfected cells; host or cells: HEK293
Source text: as §1

[1] = Table 3, analogs of SEQ ID NO: 18 varying at position 3
[2] = Table 4, analogs of SEQ ID NO: 43 varying at position 3
[3] = Table 5, analogs of SEQ ID NO: 10

T1 sequence (P43220 24-463): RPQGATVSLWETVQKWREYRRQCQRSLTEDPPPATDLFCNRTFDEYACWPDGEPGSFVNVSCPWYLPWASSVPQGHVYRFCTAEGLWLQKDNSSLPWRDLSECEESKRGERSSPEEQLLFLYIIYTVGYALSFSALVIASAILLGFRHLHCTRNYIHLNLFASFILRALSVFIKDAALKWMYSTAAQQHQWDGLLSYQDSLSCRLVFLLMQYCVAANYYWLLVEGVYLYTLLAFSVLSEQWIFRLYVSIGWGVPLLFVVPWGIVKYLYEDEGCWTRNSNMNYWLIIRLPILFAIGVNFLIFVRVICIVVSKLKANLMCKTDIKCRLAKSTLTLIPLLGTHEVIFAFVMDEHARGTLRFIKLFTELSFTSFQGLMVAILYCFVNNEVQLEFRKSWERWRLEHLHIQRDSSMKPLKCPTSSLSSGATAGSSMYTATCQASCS
T3 sequence (P47871 26-477): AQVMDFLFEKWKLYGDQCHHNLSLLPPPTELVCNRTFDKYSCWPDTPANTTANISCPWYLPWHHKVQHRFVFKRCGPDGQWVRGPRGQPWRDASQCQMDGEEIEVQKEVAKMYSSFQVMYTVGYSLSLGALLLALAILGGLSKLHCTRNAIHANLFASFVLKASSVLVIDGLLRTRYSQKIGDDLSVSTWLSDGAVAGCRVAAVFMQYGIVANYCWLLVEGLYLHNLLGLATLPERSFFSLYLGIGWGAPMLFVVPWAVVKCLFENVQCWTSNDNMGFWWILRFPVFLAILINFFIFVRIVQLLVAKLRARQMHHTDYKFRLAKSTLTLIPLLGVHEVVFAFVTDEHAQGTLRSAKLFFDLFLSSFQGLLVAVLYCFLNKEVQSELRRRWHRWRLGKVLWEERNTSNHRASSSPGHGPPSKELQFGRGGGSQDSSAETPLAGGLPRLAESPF

Row | Compound | EC50 (GLP-1 receptor; [1]) | EC50 (GIP receptor; [1]) | EC50 (glucagon receptor; [1]) | EC50 (GLP-1 receptor; Table 1) | EC50 (GLP-1 receptor; [2]) | EC50 (GLP-1 receptor; [3]) | EC50 (GIP receptor; Table 1) | EC50 (GIP receptor; [2]) | EC50 (GIP receptor; [3]) | EC50 (glucagon receptor; Table 1) | EC50 (glucagon receptor; [2]) | EC50 (glucagon receptor; [3])
1 | CCCCCCCCCCCCCCCC(=O)N[C@@H](CCC(=O)NCCCC[C@H](NC(=O)[C@H](CC(=O)O)NC(=O)[C@H](CO)NC(=O)[C@@H](NC(=O)[C@H](Cc1ccccc1)NC(=O)[C@@H](NC(=O)CNC(=O)[C@H](CCCC)NC(=O)C(C)(C)NC(=O)[C@@H](N)Cc1c[nH]cn1)[C@@H](C)O)[C@@H](C)O)C(=O)N[C@@H](CO)C(=O)N[C@@H](CCCCN)C(=O)N[C@@H](Cc1ccc(O)cc1)C(=O)N[C@@H](CC(C)C)C(=O)N[C@@H](CCC(=O)O)C(=O)N[C@@H](CCC(=O)O)C(=O)N[C@@H](CCCNC(=N)N)C(=O)N[C@@H](C)C(=O)N[C@@H](C)C(=O)N[C@@H](CCC(N)=O)C(=O)N[C@@H](CCC(=O)O)C(=O)N[C@@H](Cc1ccccc1)C(=O)N[C@H](C(=O)N[C@@H](CCC(N)=O)C(=O)N[C@@H](Cc1c[nH]c2ccccc12)C(=O)N[C@@H](CC(C)C)C(=O)N[C@@H](CC(C)C)C(=O)N[C@@H](CCC(=O)O)C(=O)NCC(=O)NCC(=O)N1CCC[C@H]1C(=O)N[C@@H](CO)C(=O)N[C@@H](CO)C(=O)NCC(=O)N[C@@H](C)C(=O)N1CCC[C@H]1C(=O)N1CCC[C@H]1C(=O)N1CCC[C@H]1C(=O)N[C@@H](CO)C(N)=O)C(C)C)C(=O)O [compound 40] (H-H[Aib][Nle]GTFTSDK([γGlu-Palmitoyl])SKYLEERAAQEFVQWLLEGGPSSGAPPPS-NH2; N-terminus assumed) | 2 pM | 4 pM | 68 pM |  |  |  |  |  |  |  |  | 
2 | CCCCCCCCCCCCCCCC(=O)N[C@@H](CCC(=O)NCCCC[C@H](NC(=O)[C@H](CC(=O)O)NC(=O)[C@H](CO)NC(=O)[C@@H](NC(=O)[C@H](Cc1ccccc1)NC(=O)[C@@H](NC(=O)CNC(=O)[C@H](CCS(C)(=O)=O)NC(=O)C(C)(C)NC(=O)[C@@H](N)Cc1c[nH]cn1)[C@@H](C)O)[C@@H](C)O)C(=O)N[C@@H](CO)C(=O)N[C@@H](CCCCN)C(=O)N[C@@H](Cc1ccc(O)cc1)C(=O)N[C@@H](CC(C)C)C(=O)N[C@@H](CCC(=O)O)C(=O)N[C@@H](CCC(=O)O)C(=O)N[C@@H](CCCNC(=N)N)C(=O)N[C@@H](C)C(=O)N[C@@H](C)C(=O)N[C@@H](CCC(N)=O)C(=O)N[C@@H](CCC(=O)O)C(=O)N[C@@H](Cc1ccccc1)C(=O)N[C@H](C(=O)N[C@@H](CCC(N)=O)C(=O)N[C@@H](Cc1c[nH]c2ccccc12)C(=O)N[C@@H](CC(C)C)C(=O)N[C@@H](CC(C)C)C(=O)N[C@@H](CCC(=O)O)C(=O)NCC(=O)NCC(=O)N1CCC[C@H]1C(=O)N[C@@H](CO)C(=O)N[C@@H](CO)C(=O)NCC(=O)N[C@@H](C)C(=O)N1CCC[C@H]1C(=O)N1CCC[C@H]1C(=O)N1CCC[C@H]1C(=O)N[C@@H](CO)C(N)=O)C(C)C)C(=O)O [compound 41] (H-H[Aib][Met(O2)]GTFTSDK([γGlu-Palmitoyl])SKYLEERAAQEFVQWLLEGGPSSGAPPPS-NH2; N-terminus assumed) | 2 pM | 67 pM | 592 pM |  |  |  |  |  |  |  |  | 
3 | CCCCCCCCCCCCCCCC(=O)N[C@@H](CCC(=O)NCCCC[C@H](NC(=O)[C@H](CC(=O)O)NC(=O)[C@H](CO)NC(=O)[C@@H](NC(=O)[C@H](Cc1ccccc1)NC(=O)[C@@H](NC(=O)CNC(=O)[C@H](CC[S+](C)[O-])NC(=O)C(C)(C)NC(=O)[C@@H](N)Cc1c[nH]cn1)[C@@H](C)O)[C@@H](C)O)C(=O)N[C@@H](CO)C(=O)N[C@@H](CCCCN)C(=O)N[C@@H](Cc1ccc(O)cc1)C(=O)N[C@@H](CC(C)C)C(=O)N[C@@H](CCC(=O)O)C(=O)N[C@@H](CCC(=O)O)C(=O)N[C@@H](CCCNC(=N)N)C(=O)N[C@@H](C)C(=O)N[C@@H](C)C(=O)N[C@@H](CCC(N)=O)C(=O)N[C@@H](CCC(=O)O)C(=O)N[C@@H](Cc1ccccc1)C(=O)N[C@H](C(=O)N[C@@H](CCC(N)=O)C(=O)N[C@@H](Cc1c[nH]c2ccccc12)C(=O)N[C@@H](CC(C)C)C(=O)N[C@@H](CC(C)C)C(=O)N[C@@H](CCC(=O)O)C(=O)NCC(=O)NCC(=O)N1CCC[C@H]1C(=O)N[C@@H](CO)C(=O)N[C@@H](CO)C(=O)NCC(=O)N[C@@H](C)C(=O)N1CCC[C@H]1C(=O)N1CCC[C@H]1C(=O)N1CCC[C@H]1C(=O)N[C@@H](CO)C(N)=O)C(C)C)C(=O)O (stereo partly drawn) [compound 42] (H-H[Aib][Met(O)]GTFTSDK([γGlu-Palmitoyl])SKYLEERAAQEFVQWLLEGGPSSGAPPPS-NH2) | 1 pM | 6 pM | 42 pM |  |  |  |  |  |  |  |  | 
4 | CCCCCCCCCCCCCCCC(=O)N[C@@H](CCC(=O)NCCCC[C@H](NC(=O)[C@H](CC(=O)O)NC(=O)[C@H](CO)NC(=O)[C@@H](NC(=O)[C@H](Cc1ccccc1)NC(=O)[C@@H](NC(=O)CNC(=O)[C@H](CCC(N)=O)NC(=O)C(C)(C)NC(=O)[C@@H](N)Cc1c[nH]cn1)[C@@H](C)O)[C@@H](C)O)C(=O)N[C@@H](CO)C(=O)N[C@@H](CCCCN)C(=O)N[C@@H](Cc1ccc(O)cc1)C(=O)N[C@@H](CC(C)C)C(=O)N[C@@H](CC(=O)O)C(=O)N[C@@H](CCC(=O)O)C(=O)N[C@@H](CCCNC(=N)N)C(=O)N[C@@H](C)C(=O)N[C@@H](C)C(=O)N[C@@H](CCC(N)=O)C(=O)N[C@@H](CC(=O)O)C(=O)N[C@@H](Cc1ccccc1)C(=O)N[C@H](C(=O)N[C@@H](CCC(N)=O)C(=O)N[C@@H](Cc1c[nH]c2ccccc12)C(=O)N[C@@H](CC(C)C)C(=O)N[C@@H](CC(C)C)C(=O)N[C@@H](CCC(=O)O)C(=O)NCC(=O)NCC(=O)N1CCC[C@H]1C(=O)N[C@@H](CO)C(=O)N[C@@H](CO)C(=O)NCC(=O)N[C@@H](C)C(=O)N1CCC[C@H]1C(=O)N1CCC[C@H]1C(=O)N1CCC[C@H]1C(=O)N[C@@H](CO)C(N)=O)C(C)C)C(=O)O [compound 43] (H-H[Aib]QGTFTSDK([γGlu-Palmitoyl])SKYLDERAAQDFVQWLLEGGPSSGAPPPS-NH2) |  |  |  | 4 pM | 10 pM | 7 pM | 5 pM | 4 pM | 18 pM | 6 pM | 5 pM | 5 pM
5 | CCCCCCCCCCCCCCCC(=O)N[C@@H](CCC(=O)NCCCC[C@H](NC(=O)[C@H](CC(=O)O)NC(=O)[C@H](CO)NC(=O)[C@@H](NC(=O)[C@H](Cc1ccccc1)NC(=O)[C@@H](NC(=O)CNC(=O)[C@@H](NC(=O)C(C)(C)NC(=O)[C@@H](N)Cc1c[nH]cn1)C(C)C)[C@@H](C)O)[C@@H](C)O)C(=O)N[C@@H](CO)C(=O)N[C@@H](CCCCN)C(=O)N[C@@H](Cc1ccc(O)cc1)C(=O)N[C@@H](CC(C)C)C(=O)N[C@@H](CC(=O)O)C(=O)N[C@@H](CCC(=O)O)C(=O)N[C@@H](CCCNC(=N)N)C(=O)N[C@@H](C)C(=O)N[C@@H](C)C(=O)N[C@@H](CCC(N)=O)C(=O)N[C@@H](CC(=O)O)C(=O)N[C@@H](Cc1ccccc1)C(=O)N[C@H](C(=O)N[C@@H](CCC(N)=O)C(=O)N[C@@H](Cc1c[nH]c2ccccc12)C(=O)N[C@@H](CC(C)C)C(=O)N[C@@H](CC(C)C)C(=O)N[C@@H](CCC(=O)O)C(=O)NCC(=O)NCC(=O)N1CCC[C@H]1C(=O)N[C@@H](CO)C(=O)N[C@@H](CO)C(=O)NCC(=O)N[C@@H](C)C(=O)N1CCC[C@H]1C(=O)N1CCC[C@H]1C(=O)N1CCC[C@H]1C(=O)N[C@@H](CO)C(N)=O)C(C)C)C(=O)O [compound 45] (H-H[Aib]VGTFTSDK([γGlu-Palmitoyl])SKYLDERAAQDFVQWLLEGGPSSGAPPPS-NH2) |  |  |  |  | 6 pM |  |  | 5 pM |  |  | 26 pM | 
